From US20110086767A1, “MUTANTS OF GLYCOSIDE HYDROLASES AND USES THEREOF FOR SYNTHESIZING COMPLEX OLIGOSACCHARIDES AND DISACCHARIDE INTERMEDIATES” (Institut Pasteur, priority 2008, published 2011)

Experiments:
[1] = target: Neisseria polysaccharea amylosucrase 1G5A (parent SEQ ID NO: 13) variant F290K (Neisseria polysaccharea, UniProt Q9ZEU2, F298K/G545D); test: Kinetic parameters towards sucrose donor, variant F290K; format: biochemical; details: F290K could not be saturated with sucrose
Description: Production and purification of AS variants were performed as previously described (ref. 45). […] The enzymes were desalted by size exclusion chromatography using P6DG columns (GE Healthcare Biosciences) at +4° C. and stored in elution buffer (50 mM Tris-HCl, pH 7.0, 150 mM NaCl) at −80° C. The protein content was determined by micro-Bradford method, using bovine serum albumin as standard (ref. 56).
All assays were performed at 30° C. in 50 mM Tris buffer, pH=7.0. For the acceptor reactions, F290D, F290K and ASNPwt (1G5A) were tested on α-D-GlcpNAc-OAll.
Enzyme assays were carried out in a total volume of 2 mL containing pure enzyme (0.115 mg and 0.106 mg when using ASNPwt and F290K, respectively). Catalytic efficiency (Eff=kcat/KM) of ASNPwt and F290K variant was determined with both sucrose (D=Donor) and α-D-GlcpNAc-OAll (A=Acceptor) as variable substrates. […] For each experiment, the reaction velocity corresponding to the acceptor glucosylation was determined by the formation of α-D-Glcp-(1→4)-α-D-GlcpNAc-OAll (called Vi(Dp2)), corresponding to the kinetics of the reaction of interest.
Initial velocities were fitted to the Michaelis-Menten equation using Sigma-Plot. As saturation was not achieved with the mutant, efficiency was calculated by linear regression analysis of the velocity versus substrate concentration plot. […]

[2] = target: Neisseria polysaccharea amylosucrase 1G5A (parent SEQ ID NO: 13) variant A289P-F290C (Neisseria polysaccharea, UniProt Q9ZEU2, A297P/F298C/G545D); test: Kinetic parameters towards sucrose donor, double mutant A289P-F290C; format: biochemical; details: sucrose donor (0-500 mM); Eadie-Hofstee plot; 30° C., pH 7.0
Description: (§1) The double mutants A289P-F290C, A289P-F290I and A289P-F290L were produced and purified, as previously described in Example 1-1. The protein content was determined by the Nanodrop ND-1000 spectrophotometer. These mutants were tested on sucrose alone or supplemented with α-D-GlcpNAc-OAll acceptor, and compared to wtAS and F290K. Assays were performed at 30° C. in 50 mM Tris-HCl buffer, pH=7.0.
(§2) Enzyme assays were carried out in a total volume of 2 mL containing pure enzyme (0.073 mg, 0.153 mg and 0.092 mg when using A289P-F290C, A289P-F2901 and A289P-F290L, respectively).
(§3) Kinetic studies of AS variants were performed in the presence of sucrose (0-500 mM). At regular time intervals (2-5 min), aliquots (200 μL) were removed, heated (95° C., 2 min) and centrifuged (18000 g, 5 min) All the samples were filtered on a 0.22 μm membrane and analyzed using HPLC material previously described. The initial rate of sucrose consumed, corresponding to the initial rate of fructose released, was expressed in mole of fructose released per minute and per gram of enzyme. The kinetic parameters kcat and Km were calculated using Eadie-Hofstee plot.

[3] = target: Neisseria polysaccharea amylosucrase 1G5A (parent SEQ ID NO: 13) variant A289P-F290I (Neisseria polysaccharea, UniProt Q9ZEU2, A297P/F298I/G545D); test: Kinetic parameters towards sucrose donor, double mutant A289P-F290I; format: biochemical; details: sucrose donor (0-500 mM); Eadie-Hofstee plot; 30° C., pH 7.0
Description: as §1, §2, §3

[4] = target: Neisseria polysaccharea amylosucrase 1G5A (parent SEQ ID NO: 13) variant A289P-F290L (Neisseria polysaccharea, UniProt Q9ZEU2, A297P/F298L/G545D); test: Kinetic parameters towards sucrose donor, double mutant A289P-F290L; format: biochemical; details: sucrose donor (0-500 mM); Eadie-Hofstee plot; 30° C., pH 7.0
Description: as §1, §2, §3

[5] = system: Neisseria polysaccharea amylosucrase 1G5A, wild type (wtAS, ASNPwt), SEQ ID NO: 13; details: sucrose donor, data from ref. 83; cited from earlier work
[6] = system: OC[C@H]1O[C@@](CO)(O[C@H]2O[C@H](CO)[C@@H](O)[C@H](O)[C@H]2O)[C@@H](O)[C@@H]1O; test: Kinetic parameters towards sucrose donor, double mutant A289P-F290L; format: biochemical, Neisseria polysaccharea; details: other: sucrose donor (0-500 mM), Eadie-Hofstee plot, 30° C., pH 7.0
Description: as §1, §2, §3

| Compound | affinity for sucrose [1] | kcat [2] [s⁻¹] | kcat [3] [s⁻¹] | kcat [4] [s⁻¹] | Km [5] [mM] | kcat [5] [s⁻¹] | Km [6] [mM] |
| --- | --- | --- | --- | --- | --- | --- | --- |
| OC[C@H]1O[C@@](CO)(O[C@H]2O[C@H](CO)[C@@H](O)[C@H](O)[C@H]2O)[C@@H](O)[C@@H]1O [sucrose] | poor affinity for sucrose | 2.8 | 1.1 | 2.1 | 50.2 | 1.3 |  |
| Neisseria polysaccharea amylosucrase 1G5A (parent SEQ ID NO: 13) variant A289P-F290L (Neisseria polysaccharea; A297P/F298L/G545D) |  |  |  |  |  |  | 10.1 |
